# Measured values as given in patent US11780840B2 (Incyte Corporation, priority 2020, dated 2023).
# Tests used:
# [1] = target: T1, catalytic domain (JH1, amino acids 826-1132) of human JAK2 (Homo sapiens, UniProt O60674); assay: JAK2 LanthaScreen JH1 Binding Assay; conditions: JAK2 JH1 (1.5 nM), 50 nM fluorescent JAK2-JH1 tracer, 2 hours at 25° C.; read-out: JH1 BIND
# T1 construct: catalytic domain (JH1, amino acids 826-1132) of human JAK2; FLAG (N); purchased Carna Biosciences 08-445-20N; host or cells: baculovirus expression system
# Procedure, shortened: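 TR-FRET tracer-displacement format: compound IC50 from four-parameter curves after 2 h at 25° C. Reaction held 1.5 nM biotinylated, FLAG-tagged JH1 (aa 826-1132), 50 nM tracer, 0.5 nM Streptavidin-Tb, pH 7.5 Tris buffer; 2 mM ATP set nonspecific background.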
# [2] = target: T2, pseudo-kinase domain (JH2, amino-acids 536-812 with 3 surface mutations W659A, W777A, F794H) of human Wild Type JAK2 (Homo sapiens, UniProt O60674, F794H/W659A/W777A); assay: JAK2 LanthaScreen JH2-WT Binding Assay; conditions: JAK2 JH2-WT (0.145 nM), 50 nM Fluorescent JAK2-JH2 Tracer, 1 hour at 25° C.; read-out: JH2 BIND WT
# T2 construct: pseudo-kinase domain (JH2, amino-acids 536-812 with 3 surface mutations W659A, W777A, F794H); His (C); Avi (biotinylated) (C); purchased BPS Bioscience 79463; host or cells: baculovirus expression system
# Procedure, shortened: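 TR-FRET tracer displacement: 0.145 nM biotinylated JH2 protein, 50 nM fluorescent tracer, 0.25 nM streptavidin-Tb, compound dilution series; 50 mM Tris pH 7.5, 10 mM MgCl2, 5 mM DTT; 1 h, 25° C. Non-specific binding with 2 mM ATP. IC50 by 4-parameter fit.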
# [3] = target: T3, pseudo-kinase domain (JH2, amino-acids 536-812 with 3 surface mutations W659A, W777A, F794H) of human V617F mutant JAK2 (Homo sapiens, UniProt O60674, F794H/V617F/W659A/W777A); assay: JAK2 LanthaScreen JH2-V617F Binding Assay; conditions: JAK2 JH2-V617F (0.26 nM), 50 nM Fluorescent JAK2-JH2 Tracer, 1 hour at 25° C.; read-out: JH2 BIND V617F
# T3 construct: pseudo-kinase domain (JH2, amino-acids 536-812 with 3 surface mutations W659A, W777A, F794H); His (C); Avi (biotinylated) (C); purchased BPS Bioscience 79498; host or cells: baculovirus expression system
# Procedure, shortened: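 TR-FRET tracer displacement: 0.26 nM protein, 50 nM tracer, 0.25 nM SA-Tb, 50 mM Tris pH 7.5, 10 mM MgCl2, 5 mM DTT; 1 h, 25° C. NSB = 2 mM ATP. IC50, 4-parameter curve.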
# T2 sequence (O60674 536-812 W659A/W777A/F794H): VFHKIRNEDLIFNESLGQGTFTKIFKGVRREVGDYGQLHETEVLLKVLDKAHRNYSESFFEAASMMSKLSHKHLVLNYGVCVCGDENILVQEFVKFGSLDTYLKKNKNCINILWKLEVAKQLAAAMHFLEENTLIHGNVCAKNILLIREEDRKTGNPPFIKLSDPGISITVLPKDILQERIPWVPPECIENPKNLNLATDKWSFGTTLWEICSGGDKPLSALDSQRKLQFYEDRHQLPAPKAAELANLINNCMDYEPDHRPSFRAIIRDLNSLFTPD
# T3 sequence (O60674 536-812 V617F/W659A/W777A/F794H): as the sequence (O60674 536-812 W659A/W777A/F794H) above, with V82F counted along it
# T1 sequence (O60674 826-1132): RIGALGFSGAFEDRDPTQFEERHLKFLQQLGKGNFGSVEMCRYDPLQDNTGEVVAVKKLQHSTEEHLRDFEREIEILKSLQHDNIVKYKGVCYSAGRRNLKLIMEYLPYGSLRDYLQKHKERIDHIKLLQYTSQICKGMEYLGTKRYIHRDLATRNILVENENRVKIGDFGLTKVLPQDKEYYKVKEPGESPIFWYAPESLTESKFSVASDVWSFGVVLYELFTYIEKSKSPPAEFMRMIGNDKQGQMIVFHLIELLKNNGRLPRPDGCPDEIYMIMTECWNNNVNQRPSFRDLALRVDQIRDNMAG
Compound,IC50 [1],IC50 [2],IC50 [3]
"CC(C)n1c(=O)n(C)c2cnc3[nH]c(Cc4ccc(C#N)cc4)c(-c4ccc5c(cnn5C)c4)c3c21 [Example 96, 4-((1-Isopropyl-3-methyl-8-(1-methyl-1H-indazol-5-yl)-2-oxo-1,2,3,6-tetrahydroimidazo [4,5-d]pyrrolo[2,3-b]pyridin-7-yl)methyl) benzonitrile]",> 1000 nM,> 1000 nM,> 1000 nM
"CCc1[nH]c2ncc3c(c2c1-c1ccc2c(cnn2C)c1)n(C1CCCC1)c(=O)n3C [Example 97, 1-Cyclopentyl-7-ethyl-3-methyl-8-(1-methyl-1H-indazol-5-yl)-3,6-dihydroimidazo[4,5-d]pyrrolo[2,3-b]pyridin-2(1H)-one]",> 1000 nM,10 to 100 nM,100 to 500 nM
"Cn1ncc2cc(-c3c(C(=O)NC4CC4)[nH]c4ncc5c(c34)n(C3CCCC3)c(=O)n5C)ccc21 [Example 98, 1-Cyclopentyl-N-cyclopropyl-3-methyl-8-(1-methyl-1H-indazol-5-yl)-2-oxo-1,2,3,6-tetrahydroimidazo [4,5-d]pyrrolo[2,3-b]pyridine-7-carboxamide]",> 1000 nM,10 to 100 nM,10 to 100 nM
"Cn1ncc2cc(-c3c(S(C)(=O)=O)[nH]c4ncc5c(c34)n(C3CCCC3)c(=O)n5C)ccc21 [Example 99, 1-Cyclopentyl-3-methyl-8-(1-methyl-1H-indazol-5-yl)-7-(methylsulfonyl)-3,6-dihydroimidazo [4,5-d]pyrrolo[2,3-b] pyridin-2(1H)-one]",> 1000 nM,500 to 1000 nM,500 to 1000 nM
"CC(C)n1c(=O)n(C)c2cnc3[nH]c(-c4cnn(C)c4)c(C#Cc4ccccc4)c3c21 [Example 100, 1-Isopropyl-3-methyl-7-(1-methyl-1H-pyrazol-4-yl)-8-(phenylethynyl)-3,6-dihydroimidazo[4,5-d]pyrrolo[2,3-b]pyridin-2(1H)-one]",500 to 1000 nM,100 to 500 nM,100 to 500 nM
"Cn1cc(-c2[nH]c3ncc4c(c3c2-c2ccc3c(cnn3C)c2)n([C@H]2C[C@@H](CC#N)C2)c(=O)n4C)cn1 [Example 101, 2-((1S,3S)-3-(3-Methyl-8-(1-methyl-1H-indazol-5-yl)-7-(1-methyl-1H-pyrazol-4-yl)-2-oxo-3,6-dihydroimidazo[4,5-d]pyrrolo[2,3-b]pyridin-1(2H)-yl)cyclobutyl)acetonitrile]",100 to 500 nM,≤ 10 nM,≤ 10 nM
"Cn1cc(-c2[nH]c3ncc4c(c3c2-c2ccc3c(cnn3C)c2)n([C@H]2CC[C@@H](CC#N)CC2)c(=O)n4C)cn1 [Example 102, 2-((1S,4S)-4-(3-Methyl-8-(1-methyl-1H-indazol-5-yl)-7-(1-methyl-1H-pyrazol-4-yl)-2-oxo-3,6-dihydroimidazo[4,5-d]pyrrolo[2,3-b]pyridin-1(2H)-yl)cyclohexyl)acetonitrile]",10 to 100 nM,≤ 10 nM,≤ 10 nM
"Cn1ncc2cc(-c3c(-c4cnn(CC(C)(C)O)c4)[nH]c4ncc5c(c34)n([C@H]3CC[C@@H](CC#N)CC3)c(=O)n5C)ccc21 [Example 103, 2-((1S,4S)-4-(7-(1-(2-Hydroxy-2-methylpropyl)-1H-pyrazol-4-yl)-3-methyl-8-(1-methyl-1H-indazol-5-yl)-2-oxo-3,6-dihydroimidazo[4,5-d]pyrrolo[2,3-b]pyridin-1(2H)-yl)cyclohexyl)acetonitrile]",100 to 500 nM,≤ 10 nM,≤ 10 nM
"COC(=O)N[C@H]1C[C@@H](n2c(=O)n(C)c3cnc4[nH]c(-c5cnn(C)c5)c(-c5ccc6c(cnn6C)c5)c4c32)C1 [Example 104, Methyl ((1S,3S)-3-(3-methyl-8-(1-methyl-1H-indazol-5-yl)-7-(1-methyl-1H-pyrazol-4-yl)-2-oxo-3,6-dihydroimidazo[4,5-d]pyrrolo[2,3-b]pyridin-1(2H)-yl)cyclobutyl)carbamate]",500 to 1000 nM,≤ 10 nM,≤ 10 nM
"CCOC(=O)N[C@H]1C[C@@H](n2c(=O)n(C)c3cnc4[nH]c(-c5cnn(C)c5)c(-c5ccc(C#N)cc5)c4c32)C1 [Example 105, Ethyl ((1S,3S)-3-(8-(4-cyanophenyl)-3-methyl-7-(1-methyl-1H-pyrazol-4-yl)-2-oxo-3,6-dihydroimidazo[4,5-d]pyrrolo[2,3-b]pyridin-1(2H)-yl)cyclobutyl)carbamate]",> 1000 nM,≤ 10 nM,≤ 10 nM
"CCOC(=O)N[C@H]1C[C@@H](n2c(=O)n(C)c3cnc4[nH]c(-c5cnn(C)c5)c(-c5ccc(OC)cc5)c4c32)C1 [Example 106, Ethyl ((1S,3S)-3-(8-(4-methoxyphenyl)-3-methyl-7-(1-methyl-1H-pyrazol-4-yl)-2-oxo-3,6-dihydroimidazo[4,5-d]pyrrolo[2,3-b]pyridin-1(2H)-yl)cyclobutyl)carbamate]",> 1000 nM,≤ 10 nM,≤ 10 nM
"CC(C)n1c(=O)n(C)c2cnc3[nH]c(-c4cnn(C)c4)c(C4CCN(C(=O)Cc5ccc(S(C)(=O)=O)cc5)CC4)c3c21 [Example 107, 1-Isopropyl-3-methyl-7-(1-methyl-1H-pyrazol-4-yl)-8-(1-(2-(4-(methylsulfonyl)phenyl)acetyl)piperidin-4-yl)-3,6-dihydroimidazo[4,5-d]pyrrolo[2,3-b]pyridin-2(1H)-one]",100 to 500 nM,10 to 100 nM,10 to 100 nM
"COc1nn(C)cc1-c1[nH]c2ncc3c(c2c1-c1ccc2c(cnn2C)c1)n([C@H]1CC[C@@H](CC#N)CC1)c(=O)n3C [Example 108, 2-((1S,4S)-4-(7-(3-methoxy-1-methyl-1H-pyrazol-4-yl)-3-methyl-8-(1-methyl-1H-indazol-5-yl)-2-oxo-3,6-dihydroimidazo[4,5-d]pyrrolo[2,3-b]pyridin-1(2H)-yl)cyclohexyl)acetonitrile]",> 1000 nM,≤ 10 nM,≤ 10 nM
"[2H]C([2H])([2H])n1ncc2cc(-c3c(-c4cn(C)nc4OC)[nH]c4ncc5c(c34)n(C3CCOCC3)c(=O)n5C)ccc21 [Example 109, 7-(3-Methoxy-1-methyl-1H-pyrazol-4-yl)-3-methyl-8-(1-(methyl-d3)-1H-indazol-5-yl)-1-(tetrahydro-2H-pyran-4-yl)-3,6-dihydroimidazo[4,5-d]pyrrolo[2,3-b]pyridin-2(1H)-one]",> 1000 nM,≤ 10 nM,≤ 10 nM
"[2H]C([2H])([2H])n1ncc2cc(-c3c(-c4cnn5cccnc45)[nH]c4ncc5c(c34)n(C3CCOCC3)c(=O)n5C)ccc21 [Example 110, 3-Methyl-8-(1-(methyl-d3)-1H-indazol-5-yl)-7-(pyrazolo[1,5-a]pyrimidin-3-yl)-1-(tetrahydro-2H-pyran-4-yl)-3,6-dihydroimidazo[4,5-d]pyrrolo[2,3-b]pyridin-2(1H)-one]",> 1000 nM,≤ 10 nM,≤ 10 nM
"Cn1cc(-c2[nH]c3ncc4c(c3c2-c2ccc3c(cnn3C)c2)n(C2CCN(C3(CC#N)CCC3)CC2)c(=O)n4C)cn1 [Example 111, 2-(1-(4-(3-Methyl-8-(1-methyl-1H-indazol-5-yl)-7-(1-methyl-1H-pyrazol-4-yl)-2-oxo-3,6-dihydroimidazo[4,5-d]pyrrolo[2,3-b]pyridin-1(2H)-yl)piperidin-1-yl)cyclobutyl)acetonitrile]",500 to 1000 nM,≤ 10 nM,≤ 10 nM
"Cn1cc(-c2[nH]c3ncc4c(c3c2-c2ccc(C#N)cc2)n(C2CCC3(CC2)CN(S(C)(=O)=O)C3)c(=O)n4C)cn1 [Example 112, 4-(3-Methyl-7-(1-methyl-1H-pyrazol-4-yl)-1-(2-(methylsulfonyl)-2-azaspiro[3.5]nonan-7-yl)-2-oxo-1,2,3,6-tetrahydroimidazo[4,5-d]pyrrolo[2,3-b]pyridin-8-yl)benzonitrile]",500 to 1000 nM,≤ 10 nM,≤ 10 nM
